Experimental data published in paper PMC9549030, “Structural basis for specific inhibition of the deubiquitinase UCHL1” (Nature Communications, 2022).
Values joined by “and” are separate entries in the source; they are usually repeats but may differ in a detail not shown here. Equal entries are not always repeated. Where two headings read alike, the source gives them in different places.

Experiments:
UCHL1 [1] = biological target: T1, UCHL1 (Homo sapiens, UniProt P09936); test: Thermal shift assay; format: binding; conditions: UCHL1 1 µM, 1 h, replicates
T1 sequence (P09936 1-223): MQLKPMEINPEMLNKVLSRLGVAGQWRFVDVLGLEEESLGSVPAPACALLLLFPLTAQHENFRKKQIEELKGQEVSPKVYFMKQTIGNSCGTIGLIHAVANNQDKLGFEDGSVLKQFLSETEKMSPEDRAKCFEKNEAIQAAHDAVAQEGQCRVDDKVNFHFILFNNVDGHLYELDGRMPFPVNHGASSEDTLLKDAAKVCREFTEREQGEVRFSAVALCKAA
Experimental: Reactions were performed in white 96-well PCR plates (Bio-Rad). UCHL1 was diluted in thermal shift buffer (1x PBS, 5 mM DTT) to a 4x concentration of 4 µM. The protein was then mixed with 4x compound dissolved in thermal shift buffer in a 1:1 ratio. To each well was added 20 µL of DUB-Inhibitor solution, followed by 1 h incubation time. To each well was then added 20 µL 4x SYPRO Orange in thermal shift buffer. After sealing the plates with a transparent film, thermal denaturation (gradient: 20–90 °C; Increment: 0.3 °C, hold for 5 s before read) was performed and monitored by a Bio-Rad Connect cycler.

UCHL1 [2] = biological target: T1, UCHL1; test: Ub-Rhodamine (Ubiquitin rhodamine cleavage) assay; format: biochemical; conditions: 1 h preincubation; for remaining activity at 0.00050402 µM: compound 0.50402 nM; for remaining activity at 0.00151206 µM: compound 1.51206 nM; for remaining activity at 0.00453618 µM: compound 4.53618 nM; for remaining activity at 0.0136085 µM: compound 13.6085 nM; for remaining activity at 0.0408257 µM: compound 40.8257 nM; for remaining activity at 0.122477 µM: compound 122.477 nM; for remaining activity at 0.367431 µM: compound 367.431 nM; for remaining activity at 1.10229 µM: compound 1102.29 nM; for remaining activity at 3.30688 µM: compound 3306.88 nM; for remaining activity at 30.581 µM: compound 30581 nM; for remaining activity at 100 µM: compound 100000 nM
UCHL1 [3] = biological target: T1, UCHL1; test: Identification of probe-labeled proteins with mass spectrometry (pulldown enrichment); conditions: HEK293 cells; 1 µM; 24 h
Experimental: Cells were cultured, treated with a compound, and lysed as described above. The cell lysate was diluted to a protein concentration of 2 mg/mL with ABP lysis buffer. 1 µL of each click reagent (see above) were added to each sample, followed by an incubation period of one hour at room temperature with protection from light. The sample volume was adjusted to 1000 µL with PBS and 30 µL of a NeutrAvidin (Thermo Fisher) bead slurry (prewashed 3x with PBS) were added to each sample. The samples were incubated for one hour to overnight on a rotator at 15 rpm at 4 °C. Beads were pelleted by centrifugation, the supernatant was discarded, and the beads were washed six times (1x with ½x lysis buffer, followed by five washes with PBS). After removing the washing solution completely, the beads were subjected to reduction with dithiothreitol (1 mM), alkylation with chloroacetamide (5 mM) and on-bead digestion with first LysC (Serva Biotech, 1 h, 37 °C), followed by trypsin (Sigma Aldrich, 1 h, overnight). Tryptic peptides were desalted with C18 StageTips and analyzed by nano-HPLC-MS/MS.
An Ultimate 3000 RSLC nano-HPLC system and a Hybrid-Orbitrap mass spectrometer (Q Exactive Plus) equipped with a nano-spray source (Thermo Fisher Scientific) was used. The protein fragments were enriched on a C18 PepMap 100 column (5 μm, 100 Å, 300 μm ID * 5 mm, Dionex) using 0.1% TFA, at a flow rate of 30 μL/min, for 5 min and separated on a C18 PepMap 100 column (3 μm, 100 Å, 75 μm ID × 50 cm) using a linear gradient (5–30% ACN/H2O + 0.1% formic acid over 90 min) with a flow rate of 300 nL/min. […] Signals in the mass range of m/z 300 to 1650 were acquired at a resolution of 70,000 for the full scan, followed by ten high-energy collision-dissociation (HCD) MS/MS scans of the most intense at least doubly charged ions at a resolution of 17,500. Proteins were relatively quantified by using MaxQuant[60] v.2.0.3.1, including the Andromeda search algorithm and searching the Homo sapiens reference proteome of the UniProt database. Briefly, an MS/MS ion search was performed for enzymatic trypsin cleavage, allowing two missed cleavages. Carbamidomethylation was set as a fixed protein modification, and oxidation of methionine and acetylation of the N-terminus were set as variable modifications. The mass accuracy was set to 20 parts per million (ppm) for the first search and to 4.5 ppm for the second search. The false discovery rates for peptide and protein identification were set to 0.01. Only proteins for which at least two peptides were quantified were chosen for further validation. Relative quantification of proteins was performed by using the label-free quantification algorithm implemented in MaxQuant. Statistical data analysis of pulldown samples was performed using Perseus[61] v.1.6.15.0, including proteins which were identified in at least four of the five biological replicates which were used per condition. Label-free quantification (LFQ) intensities were log-transformed (log2); replicate samples were grouped together. Pairwise comparisons of groups were performed separately. Missing values were imputed using small normally distributed values (width 0.3, downshift 1.8) and a two-sided t-test (s0 = 5, FDR = 0.001) was performed.

UCHL1 in HEK293 cells = system: T2, UCHL1 in HEK293 cells; test: Cellular Ub-probe (HA-Ub-VS) competition, inhibition of cellular UCHL1; format: cell-based, human; conditions: HEK293 cells; 24 h
T2 construct: Western blot analysis of endogenous UCHL1 labeled with HA-Ub-VS after treatment of HEK293 cells; endogenous in cells; host or cells: HEK293
Experimental: Proteins were transferred to a polyvinylidene fluoride (PVDF, only experiments in Fig. 4e and Supplementary Fig. 7e, f) or nitrocellulose (all other experiments) membrane using a Trans-Blot Turbo system (Bio-Rad, 1.3 A, 25 V, 10 min). The membranes were blocked with 5% (m/v) nonfat milk in PBS-T buffer and incubated with indicated primary antibodies (anti-UCHL1, 1:1000, Cell Signaling, D3T2E; anti-PARK7, 1:1000, Cell Signaling, D29E5; anti-Tubulin, 1:4000, Sigma, T6199; anti-Hemagglutinin, 1:1000, BioLegend, 16B12; anti-flag, 1:2000, Sigma, F3165; anti-Ubiquitin, 1:1000, Cell Signaling, P4D1; anti-Ubiquitin, 1:300, Santa Cruz, P4D1, sc-8017; anti-UCHL3, 1:1000, Proteintech, 12384-1-AP) overnight. Then the membranes were incubated with the respective secondary antibody (anti-mouse,1:5000, Sigma, NXA931; anti-rabbit, 1:5000, Sigma, GENA934) coupled to horseradish peroxidase. The chemiluminescent reaction was initiated using a Clarity Western ECL substrate (Bio-Rad) and images were taken on a ChemiDoc MP Imaging System (Bio-Rad).
The total protein concentration was adjusted to 2 mg/ml by diluting each sample with ABP lysis buffer. A final concentration of 1 µM HA-Ub-VS probe was added, followed by incubation for 30 min at 37 °C. The labeling reaction was quenched by the addition of 4x LDS sample buffer. The samples were separated via SDS-PAGE and further analyzed via western blotting as described above.

DUBs in HEK293 lysate = test: Activity-based protein profiling in the lysate with Ub-VS competition; format: binding, human; conditions: 1 µM, 1 h
Experimental: Cells (4 × 10^6) were seeded in 10 cm dishes and grown to 90% confluency. The medium was aspirated, cells were washed with ice-cold PBS, treated with 600 µL ABP lysis buffer (1% (v/v) IGEPAL, 50 mM Tris, 150 mM NaCl, 5% glycerol, pH 8, cOmplete protease inhibitor cocktail), and incubated on ice for 15 min. The lysed cells were scrapped off the dish, cleared by centrifugation, and the protein concentration was determined via a Bradford assay. […] Each compound was diluted to a 2x concentration in PBS buffer from a 10 mM stock in DMSO (final concentration: 1 µM). Then each compound dilution or a DMSO dilution was mixed with cell lysate and incubated for one hour at room temperature. […] Samples were resolved by SDS-PAGE using a 4–12% Bis-Tris gel (Invitrogen, NuPAGE) with MES SDS running buffer for 50 min at 180 V. Fluorescence was read out using the Alexa564 (λex/em 520–545/577–613 nm, for TAMRA) and Alexa680 (λex/em 650–675/700–730 nm, for the PageRuler Prestained NIR Protein Ladder (Thermo Scientific)) channels on a ChemiDoc MP Imaging System (Bio-Rad).

[4] = read-out: UCHL1 activity, data point mean

| Structure (SMILES) | melting temperature (Tm) of UCHL1 (UCHL1 [1]; compound 1.25 µM) | melting temperature (Tm) of UCHL1 (UCHL1 [1]; compound 2.5 µM) | melting temperature (Tm) of UCHL1 (UCHL1 [1]; compound 5 µM) | IC50 (UCHL1 [2]; read-out: IC50 (UCHL1)) [µM] | remaining activity at 0.00050402 µM (UCHL1 [2]; [4]) [%] | remaining activity at 0.00151206 µM (UCHL1 [2]; [4]) [%] | remaining activity at 0.00453618 µM (UCHL1 [2]; [4]) [%] | remaining activity at 0.0136085 µM (UCHL1 [2]; [4]) [%] | remaining activity at 0.0408257 µM (UCHL1 [2]; [4]) [%] | remaining activity at 0.122477 µM (UCHL1 [2]; [4]) [%] | remaining activity at 0.367431 µM (UCHL1 [2]; [4]) [%] | remaining activity at 1.10229 µM (UCHL1 [2]; [4]) [%] | remaining activity at 3.30688 µM (UCHL1 [2]; [4]) [%] | remaining activity at 30.581 µM (UCHL1 [2]; [4]) [%] | remaining activity at 100 µM (UCHL1 [2]; [4]) [%] | further results |
| --- | --- | --- | --- | --- | --- | --- | --- | --- | --- | --- | --- | --- | --- | --- | --- | --- |
| C#CCCCNC(=O)c1ccc(-n2cnc(NC(=O)[C@@H]3CCNC3)c2)cc1 [GK12R] | 53.4 and 52.8 and 53.1 | 53.4 | 53.1 | > 100 | 95.8 | 97.9 | 98 | 94.4 | 95.3 | 95.6 | 94.6 | 95.5 | 94.2 | 93.5 | 99.1 | – |
| C#CCCCNC(=O)c1ccc(-n2cnc(NC(=O)[C@H]3CCNC3)c2)cc1 [GK12S] | 53.4 and 53.1 | 53.4 | 53.4 and 53.1 | > 100 | 91.5 | 91.7 | 90.7 | 97.1 | 88.7 | 91.4 | 92.8 | 91.5 | 88.8 | 90.9 | 101 | – |
| C#CCCCNC(=O)c1ccc(-n2cnc(NC(=O)[C@@H]3CCN(C#N)C3)c2)cc1 [GK13R] | 53.1 and 53.4 | 53.7 and 53.4 | 54 and 54.6 | 2 | – | – | – | – | – | – | – | – | – | – | – | IC50 (UCHL1 [2]; mean ± SD of independent experiments, read-out: IC50 (UCHL1)): 2.09 ± 0.164 µM; remaining activity at 0.000305176 µM (UCHL1 [2]; compound 0.305176 nM, read-out: UCHL1 activity, data point mean): 103%; remaining activity at 0.000610352 µM (UCHL1 [2]; compound 0.610352 nM, read-out: UCHL1 activity, data point mean): 98.3%; remaining activity at 0.0012207 µM (UCHL1 [2]; compound 1.2207 nM, read-out: UCHL1 activity, data point mean): 99.2%; remaining activity at 0.00244141 µM (UCHL1 [2]; compound 2.44141 nM, read-out: UCHL1 activity, data point mean): 99.4%; remaining activity at 0.00488281 µM (UCHL1 [2]; compound 4.88281 nM, read-out: UCHL1 activity, data point mean): 97.8%; remaining activity at 0.00976562 µM (UCHL1 [2]; compound 9.76562 nM, read-out: UCHL1 activity, data point mean): 96.8%; remaining activity at 0.0195312 µM (UCHL1 [2]; compound 19.5312 nM, read-out: UCHL1 activity, data point mean): 95.9%; remaining activity at 0.0390625 µM (UCHL1 [2]; compound 39.0625 nM, read-out: UCHL1 activity, data point mean): 98.3%; remaining activity at 0.078125 µM (UCHL1 [2]; compound 78.125 nM, read-out: UCHL1 activity, data point mean): 93.7%; remaining activity at 0.15625 µM (UCHL1 [2]; compound 156.25 nM, read-out: UCHL1 activity, data point mean): 88%; remaining activity at 0.3125 µM (UCHL1 [2]; compound 312.5 nM, read-out: UCHL1 activity, data point mean): 80.6%; remaining activity at 0.625 µM (UCHL1 [2]; compound 625 nM, read-out: UCHL1 activity, data point mean): 70.3%; remaining activity at 1.25 µM (UCHL1 [2]; compound 1250 nM, read-out: UCHL1 activity, data point mean): 52.9%; remaining activity at 2.5 µM (UCHL1 [2]; compound 2500 nM, read-out: UCHL1 activity, data point mean): 34.3%; remaining activity at 5 µM (UCHL1 [2]; compound 5000 nM, read-out: UCHL1 activity, data point mean): 13.6%; remaining activity at 10 µM (UCHL1 [2]; compound 10000 nM, read-out: UCHL1 activity, data point mean): 3.56%; IC50 (UCHL1 [2]; source data Fig. 3b, read-out: Averaged IC50s from independent experiments (single experiments)): 2.21 µM and 1.98 µM; change in log2 enrichment values of UCHL1, GK13S vs GK13R (UCHL1 [3]): 2; inhibition of cellular UCHL1 (UCHL1 in HEK293 cells): complete inhibition of UCHL1 |
| C#CCCCNC(=O)[C@@H]1CCN(C#N)C1 [GK16R] | 53.4 and 53.1 | 53.1 and 53.4 | 53.4 and 53.1 | > 100 | 91.8 | 91.4 | 89.6 | 96.6 | 94.5 | 93.7 | 92.4 | 91.5 | 89 | 83.6 | 80.5 | – |
| C#CCN1CCN(CCOc2ccc(C(CCC)NC(=O)/C(C#N)=C/c3cccc(Br)n3)cc2)CC1 (stereo not shown) [MS037] | – | – | – | – | – | – | – | – | – | – | – | – | – | – | – | DUB engagement (Ub-VS competitive labeling) (DUBs in HEK293 lysate): did not show DUB engagement |
